Experimental data published in EP0597838B1, “VACCINE COMPOSITIONS” (NORTH AMERICAN VACCINE, INC., priority 1990, dated 1991).

Assays:
[1] = system: hepatitis B surface antigen; test: Antibody response to hepatitis B surface antigen with octadecyl amino acid immunoadjuvants, radioimmunoassay of sera; type: in vivo, BALB/c mice; conditions: 50 ng HBsAg i.m. day 1, boost 35 ng day 21, 100 µg octadecyl amino acid
Method: BALB/c mice were immunized with 50 ng of hepatitis B surface antigen in the presence of adjuvant for the non-control mice and in the absence of adjuvant for the control mice. The hepatitis B surface antigen was obtained from 3T3 cells transfected with the gene for the surface antigen. 100 µg of octadecyl amino acid was complexed with the polypeptide as described in Example 2. This mixture, in a total volume of 0.1 ml, was injected on day 1 using an intramuscular route, and the mice were bled on days 7, 14, 21, 28, 35, 42 and 61. The mice were boosted with 35 ng of the polypeptide on day 21.
The antibody concentration in the sera was determined by radioimmunoassay. The antibody concentration was estimated by comparison with a standard curve obtained using a monoclonal antibody.

HIV-1 polypeptide = test: Antibody response to HIV-1 polypeptide in baboons with octadecyl tyrosine hydrochloride, radioimmunoassay; type: in vivo
Method: 3) Experiments in baboons Two baboons were immunized with 300 µg of chemically synthesized polypeptide, corresponding to the amino acid sequence of residues 503-535 of HIV-1, coupled to Keyhole Limpet Hemocyanin. 500 µg of octadecyl tyrosine hydrochloride was complexed with the polypeptide, as described in Example 2. This mixture in a total volume of 1.0 ml was injected on day 1 and again on day 35. The animals were bled 3 days before the first immunization, and on days 14, 32 and 49. The same experiment was undertaken with another two baboons, but with polypeptide corresponding to the amino acid sequence 526-535 of HIV-1. The antibody concentration in the sera was indirectly measured by radioimmunoassay. Tiltration was undertaken by incubation of samples on plates coated with peptide-albumin conjugate, and reaction with iodine-125 labelled rabbit anti-monkey immunoglobulin.

Compound	Anti-HBsAg antibody concentration ([1]; day 7)	Anti-HBsAg antibody concentration ([1]; day 14)	Anti-HBsAg antibody concentration ([1]; day 21)	Anti-HBsAg antibody concentration ([1]; day 28)	Anti-HBsAg antibody concentration ([1]; day 35)	Anti-HBsAg antibody concentration ([1]; day 61)	Antibody response to HIV-1 polypeptide (HIV-1 polypeptide; ANIMAL 1, day 14, 300 µg polypeptide-KLH + 500 µg octadecyl tyrosine hydrochloride on day 1 and 35, background subtracted)	Antibody response to HIV-1 polypeptide (HIV-1 polypeptide; ANIMAL 1, day 32, 300 µg polypeptide-KLH + 500 µg octadecyl tyrosine hydrochloride on day 1 and 35, background subtracted)	Antibody response to HIV-1 polypeptide (HIV-1 polypeptide; ANIMAL 1, day 49, 300 µg polypeptide-KLH + 500 µg octadecyl tyrosine hydrochloride on day 1 and 35, background subtracted)	Antibody response to HIV-1 polypeptide (HIV-1 polypeptide; ANIMAL 1, day -3 (bled before the first immunization), after subtraction of background on bovine serum albumin coated plates)	Antibody response to HIV-1 polypeptide (HIV-1 polypeptide; ANIMAL 2, day 14, 300 µg polypeptide-KLH + 500 µg octadecyl tyrosine hydrochloride on day 1 and 35, background subtracted)	Antibody response to HIV-1 polypeptide (HIV-1 polypeptide; ANIMAL 2, day 32, 300 µg polypeptide-KLH + 500 µg octadecyl tyrosine hydrochloride on day 1 and 35, background subtracted)	Antibody response to HIV-1 polypeptide (HIV-1 polypeptide; ANIMAL 2, day 49, 300 µg polypeptide-KLH + 500 µg octadecyl tyrosine hydrochloride on day 1 and 35, background subtracted)	Antibody response to HIV-1 polypeptide (HIV-1 polypeptide; ANIMAL 2, day -3 (bled before the first immunization), after subtraction of background on bovine serum albumin coated plates)
CCCCCCCCCCCCCCCCCCOC(=O)C(N)CCCCN (centres unmarked) [Octadecyl Lysine]	33 ng/mL	55 ng/mL	39 ng/mL	51 ng/mL	67 ng/mL	53 ng/mL								
Octadecyl Forphenicine	100 ng/mL	112 ng/mL	116 ng/mL	908 ng/mL	592 ng/mL	355 ng/mL								
Octadecyl Forphenicinol	31 ng/mL	40 ng/mL	26 ng/mL	65 ng/mL	306 ng/mL	98 ng/mL								
CCCCCCCCCCCCCCCCCCOC(=O)CN	47 ng/mL	38 ng/mL	51 ng/mL	147 ng/mL	748 ng/mL	301 ng/mL								
H-Val-Ala-Pro-Thr-Lys-Ala-Lys-Arg-Arg-Val-Val-Gln-Arg-Glu-Lys-Arg-Ala-Val-Gly-Ile-Gly-Ala-Leu-Phe-Leu-Gly-Phe-Leu-Gly-Ala-Ala-Gly-Ser- (VAPTKAKRRVVQREKRAVGIGALFLGFLGAAGS; printed: Val-Ala-Pro-Thr-Lys-Ala-Lys-Arg-Arg-Val-Val-Gln-Arg-Glu-Lys-Arg-Ala-Val-Gly-Ile-Gly-Ala-Leu-Phe-Leu-Gly-Phe-Leu-Gly-Ala-Ala-Gly-Ser-) [503-535]							2004 CPM	2185 CPM	5948 CPM	1020 CPM	2160 CPM	2121 CPM	4470 CPM	1530 CPM
CCCCCCCCCCCCCCCCCCOC(=O)C1CCCN1 (centres unmarked)	49 ng/mL	35 ng/mL	41 ng/mL	72 ng/mL	409 ng/mL	168 ng/mL								
CCCCCCCCCCCCCCCCCCOC(=O)CCN	31 ng/mL	45 ng/mL	44 ng/mL	120 ng/mL	337 ng/mL	373 ng/mL								
CCCCCCCCCCCCCCCCCCOC(=O)C(N)CC(C)C (centres unmarked)	48 ng/mL	42 ng/mL	37 ng/mL	160 ng/mL	590 ng/mL	496 ng/mL								
